Test results taken from patent US11371055B2, “Herbicide resistance genes” (CORTEVA AGRISCIENCE LLC, priority 2005, dated 2022).

Tests used:
[1] = test system: PAT/Cry1F-transformed Arabidopsis (auxin-sensitive transformed control); assay: T1 Arabidopsis postemergence herbicide dose response, transformed control; format: in vivo, Arabidopsis thaliana
Experimental: (§1) Seven days after planting (DAP) and again 11 DAP, T1 plants (cotyledon and 2-4-lf stage, respectively) were sprayed with a 0.2% solution of Liberty herbicide (200 g ai/L glufosinate, Bayer Crop Sciences, Kansas City, Mo.) at a spray volume of 10 ml/tray (703 L/ha) using a DeVilbiss compressed air spray tip to deliver an effective rate of 280 g ai/ha glufosinate per application. Survivors (plants actively growing) were identified 4-7 days after the final spraying and transplanted individually into 3-inch pots prepared with potting media (Metro Mix 360). Transplanted plants were covered with humidity domes for 3-4 days and placed in a 22° C. growth chamber as before or moved to directly to the greenhouse. Domes were subsequently removed and plants reared in the greenhouse (22±5° C., 50±30% RH, 14 h light:10 dark, minimum 500 μE/m^2 s^1 natural+supplemental light) at least 1 day prior to testing for the ability of AAD-12 (v1) (plant optimized gene) to provide phenoxy auxin herbicide resistance.
(§2) T1 plants were then randomly assigned to various rates of 2,4-D. For Arabidopsis, 50 g ae/ha 2,4-D is an effective dose to distinguish sensitive plants from ones with meaningful levels of resistance. Elevated rates were also applied to determine relative levels of resistance (50, 200, 800, or 3200 g ac/ha). Tables 10 and 11 show comparisons drawn to an aryloxyalkanoate herbicide resistance gene (AAD-1 (v3)) previously described in PCT/US2005/014737.
(§3) All auxin herbicide applications were made using the DeVilbiss sprayer as described above to apply 703 L/ha spray volume (0.4 ml solution/3-inch pot) or applied by track sprayer in a 187 L/ha spray volume. 2,4-D used was either technical grade (Sigma, St. Louis, Mo.) dissolved in DMSO and diluted in water (<1% DMSO final concentration) or the commercial dimethylamine salt formulation (456 g ac/L, NuFarm, St Joseph, Mo.). Dichlorprop used was commercial grade formulated as potassium salt of R-dichlorprop (600 g ai/L, AH Marks). As herbicide rates increased beyond 800 g ae/ha, the pH of the spray solution became exceedingly acidic, burning the leaves of young, tender Arabidopsis plants and complicating evaluation of the primary effects of the herbicides. It became standard practice to apply these high rates of herbicides in 200 mM HEPES buffer, pH 7.5.
The first Arabidopsis transformations were conducted using AAD-12 (v1) (plant optimized gene). T1 transformants were first selected from the background of untransformed seed using a glufosinate selection scheme. Over 300,000 T1 seed were screened and 316 glufosinate resistant plants were identified (PAT gene), equating to a transformation/selection frequency of 0.10% which lies in the normal range of selection frequency of constructs where PAT+Liberty are used for selection. T1 plants selected above were subsequently transplanted to individual pots and sprayed with various rates of commercial aryloxyalkanoate herbicides. Table 11 compares the response of AAD-12 (v1) and control genes to impart 2,4-D resistance to Arabidopsis T1 transformants. Response is presented in terms of % visual injury 2 WAT. […] Since each T1 is an independent transformation event, one can expect significant variation of individual T1 responses within a given rate. An arithmetic mean and standard deviation is presented for each treatment. The range in individual response is also indicated in the last column for each rate and transformation. PAT/Cry1F-transformed Arabidopsis served as an auxin-sensitive transformed control. The AAD-12 (v1) gene imparted herbicide resistance to individual T1 Arabidopsis plants. Within a given treatment, the level of plant response varied greatly and can be attributed to the fact each plant represents an independent transformation event. Of important note, at each 2,4-D rate tested, there were individuals that were unaffected while some were severely affected. […]

[2] = test system: AAD-12 (v1) gene T1 transformants (Arabidopsis); assay: T1 Arabidopsis postemergence herbicide dose response, % visual injury; format: in vivo, Arabidopsis thaliana
Experimental: Freshly harvested T1 seed [AAD-12 (v1) gene] was allowed to dry for 7 days at room temperature. T1 seed was sown in 26.5×51-cm germination trays (T.O. Plastics Inc., Clearwater, Minn.), each receiving a 200 mg aliquots of stratified T, seed (˜10,000 seed) that had previously been suspended in 40 ml of 0.1% agarose solution and stored at 4° C. for 2 days to complete dormancy requirements and ensure synchronous seed germination.
Sunshine Mix LP5 (Sun Gro Horticulture Inc., Bellevue, Wash.) was covered with fine vermiculite and subirrigated with Hoagland's solution until wet, then allowed to gravity drain. Each 40 ml aliquot of stratified seed was sown evenly onto the vermiculite with a pipette and covered with humidity domes (KORD Products, Bramalea. Ontario, Canada) for 4-5 days. Domes were removed 1 day prior to initial transformant selection using glufosinate postemergence spray (selecting for the co-transformed PAT gene).
as §1, §2, §3
The first Arabidopsis transformations were conducted using AAD-12 (v1) (plant optimized gene). T1 transformants were first selected from the background of untransformed seed using a glufosinate selection scheme. Over 300,000 T1 seed were screened and 316 glufosinate resistant plants were identified (PAT gene), equating to a transformation/selection frequency of 0.10% which lies in the normal range of selection frequency of constructs where PAT+Liberty are used for selection. T1 plants selected above were subsequently transplanted to individual pots and sprayed with various rates of commercial aryloxyalkanoate herbicides. […]

[3] = test system: cotton cotyledonary segments; format: cell-based
Experimental: A dose response study was initiated to test multiple auxin alternatives as a substitute for the use of 2,4-D as a growth regulator in cotton. The alternative auxin tested were 2,4-dichlorprop, dicamba, and picloram. These compounds were tested at 0.2, 2.0, and 20.0 uM concentrations respectively. 2,4-D was used as the control treatment at 0.02 uM concentration. The medium used is the base medium for cotton callus induction (Example 12). Beyond the initial phase of culture, auxin is removed from the medium to prod the tissue toward the regeneration process.

[4] = 50 g ae/ha 2,4-D postemergence, 2 WAT
[5] = 200 g ae/ha 2,4-D postemergence, 2 WAT
[6] = 800 g ae/ha 2,4-D postemergence, 2 WAT
[7] = 3200 g ae/ha 2,4-D postemergence, 2 WAT
[8] = 50 g ae/ha R-dichlorprop postemergence
[9] = 200 g ae/ha R-dichlorprop postemergence
[10] = 800 g ae/ha R-dichlorprop postemergence
[11] = 3200 g ae/ha R-dichlorprop postemergence

`O=C(O)COc1ccc(Cl)cc1Cl` [2,4-D, 2,4-dichlorophenoxyacetic acid] was tested, and the “% Injury 20-40% (number of individuals)” value [1, 4] was 1, the “% Injury <20% (number of individuals)” value [1, 4] was 4 and the “% Injury >40% (number of individuals)” value [1, 4] was 5. For the same compound, the “% Injury Ave” value [1, 4] was 31%, the “% Injury 20-40% (number of individuals)” value [1, 5] was 0 and the “% Injury <20% (number of individuals)” value [1, 5] was 0. The “% Injury >40% (number of individuals)” value [1, 5] was 10, the “% Injury Ave” value [1, 5] was 70% and the “% Injury 20-40% (number of individuals)” value [1, 6] was 0. The “% Injury <20% (number of individuals)” value [1, 6] was 0, the “% Injury >40% (number of individuals)” value [1, 6] was 10 and the “% Injury Ave” value [1, 6] was 81%. For the same compound, the “% Injury 20-40% (number of individuals)” value [1, 7] was 0, the “% Injury <20% (number of individuals)” value [1, 7] was 0 and the “% Injury >40% (number of individuals)” value [1, 7] was 10. For the same compound, the “% Injury Ave” value [1, 7] was 91%, the “% Injury 20-40% (number of individuals)” value [2, 4] was 0 and the “% Injury <20% (number of individuals)” value [2, 4] was 6. For the same compound, the “% Injury >40% (number of individuals)” value [2, 4] was 2, the “% Injury Ave” value [2, 4] was 16% and the “% Injury 20-40% (number of individuals)” value [2, 5] was 1. The “% Injury <20% (number of individuals)” value [2, 5] was 6, the “% Injury >40% (number of individuals)” value [2, 5] was 1 and the “% Injury Ave” value [2, 5] was 11%. The “% Injury 20-40% (number of individuals)” value [2, 6] was 2, the “% Injury <20% (number of individuals)” value [2, 6] was 5 and the “% Injury >40% (number of individuals)” value [2, 6] was 1. For the same compound, the “% Injury Ave” value [2, 6] was 15%, the “% Injury 20-40% (number of individuals)” value [2, 7] was 0 and the “% Injury <20% (number of individuals)” value [2, 7] was 8. The “% Injury >40% (number of individuals)” value [2, 7] was 0 and the “effect on cotton callus generation and growth” value ([3]; highest concentration (20 uM)) was “inhibitory”.

In the case of `C[C@@H](Oc1ccc(Cl)cc1Cl)C(=O)O` [(R)-dichlorprop, R-2,4-dichlorophenoxypropionic acid], the “% Injury 20-40% (number of individuals)” value [1, 8] is reported as 10, the “% Injury <20% (number of individuals)” value [1, 8] is reported as 0 and the “% Injury >40% (number of individuals)” value [1, 8] is reported as 0. The “% Injury Ave” value [1, 8] was 27%, the “% Injury 20-40% (number of individuals)” value [1, 9] was 0 and the “% Injury <20% (number of individuals)” value [1, 9] was 0. For the same compound, the “% Injury >40% (number of individuals)” value [1, 9] was 10, the “% Injury Ave” value [1, 9] was 69% and the “% Injury 20-40% (number of individuals)” value [1, 10] was 0. The “% Injury <20% (number of individuals)” value [1, 10] was 0, the “% Injury >40% (number of individuals)” value [1, 10] was 10 and the “% Injury Ave” value [1, 10] was 83%. For the same compound, the “% Injury 20-40% (number of individuals)” value [1, 11] was 0, the “% Injury <20% (number of individuals)” value [1, 11] was 0 and the “% Injury >40% (number of individuals)” value [1, 11] was 10. For the same compound, the “% Injury Ave” value [1, 11] was 90%, the “% Injury 20-40% (number of individuals)” value [2, 8] was 0 and the “% Injury <20% (number of individuals)” value [2, 8] was 0. For the same compound, the “% Injury >40% (number of individuals)” value [2, 8] was 8, the “% Injury Ave” value [2, 8] was 63% and the “% Injury 20-40% (number of individuals)” value [2, 9] was 0. The “% Injury <20% (number of individuals)” value [2, 9] was 0, the “% Injury >40% (number of individuals)” value [2, 9] was 8 and the “% Injury Ave” value [2, 9] was 85%. For the same compound, the “% Injury 20-40% (number of individuals)” value [2, 10] was 0, the “% Injury <20% (number of individuals)” value [2, 10] was 0 and the “% Injury >40% (number of individuals)” value [2, 10] was 8. For the same compound, the “% Injury Ave” value [2, 10] was 96%, the “% Injury 20-40% (number of individuals)” value [2, 11] was 0 and the “% Injury <20% (number of individuals)” value [2, 11] was 0. The “% Injury >40% (number of individuals)” value [2, 11] was 8, the “% Injury Ave” value [2, 11] was 98% and the “callus induction of cotyledonary segments” value ([3]; concentrations tested up to 20 uM) was “not effective”.
